Measurements published in patent US6943191B1, “Disubstituted lavendustin A analogs and pharmaceutical composition comprising the analogs” (The United States of America as represented by the …, priority 1998, dated 2005).
Like-named read-outs stand apart in the source and are kept apart here. Values belong to the compound of their own block, whether it stands above or below them.

Assays:
K562 cells = assay: K562 cell culture and growth assay, 6 day MTT; format: cell-based, human; conditions: K562, 6 days, 4 or more experiments
Procedure: This example describes the procedure used for cell culture and growth assays. Human leukemia, Philadelphia-chromosome-positive CML cell line K562 was obtained from ATCC (Rockville, Md.). Cells were cultured in RPMI medium containing 10% fetal calf serum, 2 mM glutamine, 100 units/ml of penicillin and 100 μg/ml streptomycin Cells (2×10^3 cells/well) were incubated with increasing concentrations of compounds of the present invention dissolved in DMSO in a final volume of 200 μl in 96-well plates. Control cells were incubated with medium containing identical concentrations of the DMSO solvent. Growth of K562 cells was quantitated after 6 days by ability of living cells to reduce the yellow dye 3-(4,5-dimethylthiazolyl)-2,5-diphenyltetrazolium bromide (MTT) to a blue formazan product. Further information concerning this procedure is provided by Mossman T., “Rapid Colorimetric Assay for Cellular Growth and Survival—Application to Proliferation and Cytotoxicity Assays,” J. Immunol. Methods 1983, 65:55-63, which is incorporated herein by reference.

[1] = tested on: panel of approximately 60 different human tumor cell lines; assay: National Cancer Institute drug screen, mean-graph parameters; format: cell-based; conditions: mean over cell line panel, two days exposure; for GI50: Homo sapiens, 48 h, read-out: Tumor cell Mean log GI50 (converted)
Procedure: Compounds of the present invention also have been subjected to the drug screening procedure employed by the National Cancer Institute for the screening of drugs having possible anticancer utility. The screening procedure uses a diverse, disease-oriented panel consisting of approximately 60 different human tumor cell lines organized into disease-specific subpanels. The compounds of the present invention were tested over a range of concentrations for cytotoxic or growth-inhibitory effects against cell lines comprising the panel. The eight subpanels represented diverse histologies (leukemias, melanomas, and tumors of the lung, colon, kidney, breast, ovary, and brain).
Compounds of the present invention were tested over a period of two days. During this period the cells were continuously exposed to various concentrations of the compounds tested. The tests produced individual dose-responses, one for each cell line (i.e. one for each example), and the data were represented in dose-response curves. The data provided by these dose response curves were summarized using a mean-graph format.
To produce data for the mean-graph format, a compound concentration that produced a target level response was calculated for each cell line. Three different response parameters were evaluated. The first response parameter was the growth inhibition (“GI50”). GI50 is the concentration of compounds made according to the present invention that produced an apparent 50% decrease in the number of tumor cells relative to the appropriate control (not exposed to the compounds of the present invention) at the end of the incubation period.
The second response parameter was the total growth inhibition (“TGI”). TGI is the concentration at which the number of tumor cells remaining at the end of the incubation period substantially equal the number of tumor cells existing at the start of the incubation period.
The third response parameter was the lethal concentration (“LC50”) LC50 is the concentration of compounds made according to the present invention that caused an apparent 50 percent reduction in the number of tumor cells […] at the start of the incubation period.
In a typical GI50 mean graph, the relative position of the vertical reference line along the horizontal concentration axis was obtained by averaging the negative log10GI50 values for all the cell lines tested against the compound. Horizontal bars were then plotted for the individual negative log10GI50 values of each cell line relative to the vertical reference line. The GI50 graph thus provided a characteristic fingerprint for the compound, displaying the individual cell lines that are proportionately more sensitive than average (bars extending to the right of the reference line) or proportionately less sensitive than average (bars extending to the left of the reference line). The length of a bar was proportional to the difference between the log10GI50 value obtained with the particular cell line and the mean (represented by the vertical reference line).
Similar mean graphs were prepared for the TGI and LC50 response parameters.

[2] = tested on: minimum of 12 human cancer cell lines; assay: Hollow fiber assay in mice, point score; format: in vivo; conditions: for Hollow Fiber Assay IP score: first number of cell; for Hollow Fiber Assay SC score: second number of cell
Procedure: Compounds satisfying Formulas 1 and 2 also have been tested for in vivo activity in the hollow fiber assay. See Example 12 below for the procedure used for the in vivo tests. Each compound tested was tested against a minimum of 12 human cancer cell lines. Data is reported as % T/C (i.e., the […]) for each of the 2 compound doses against each of the cell lines with separate values calculated for the intraperitoneal and subcutaneous samples, with a target value for % T/C being about 50 or less.
Compounds were selected for further in vivo testing in standard subcutaneous xenograft models on the basis of several hollow fiber assay criteria. These criteria include: (1) a % T/C of 50 or less in 10 of the 48 possible test combinations (12 cell lines×2 sites×2 compound doses); (2) activity at a distance (intrapentoneal drug/subcutaneous culture) in a minimum of 4 of the 24 possible combinations; and/or (3) a net cell kill of 1 or more cell lines in either implant site. To simplify evaluation, a point system has been adopted which allows rapid assessment of a compound's activity. A value of 2 is assigned for each compound dose which results in a 50% or greater reduction in viable cell mass. The intraperitoneal and subcutaneous samples were scored separately so that criteria (1) and (2) could be evaluated. Compounds with a combined IP+SC score≧20, an SC score≧8, or a net cell kill of one or more cell lines were referred for xenograft testing. These criteria have been statistically validated by comparing the activity outcomes of greater than 80 randomly selected compounds in the hollow fiber assay and in the xenograft testing.
This example describes the method used for in vivo testing of mice. Human cancer cells were cultivated in polyvinylidene fluoride (PVDF) hollow fibers. A sample of each cancer cell line was implanted intraperitoneally and subcutaneously in mice. Each mouse received a total of 6 fibers, 3 intraperitoneally and 3 subcutaneously, representing 3 distinct cancer cell lines. Three mice were treated with compounds made according to the present invention at each of two test doses intraperitoneally using a QD×4 treatment schedule. Vehicle controls consisted of 6 mice receiving the compound diluent only The fiber cultures were collected on the day following the last treatment. Anticancer effects were assessed by determining viable cell mass for each of the coil line using a formazan dye (MTT) conversion assay. From this, the % TIC was calculated using the average optical density of the compound-treated samples divided by the average optical density of the vehicle controls. In addition, the net increase in cell mass was determined for each sample as samples of fiber cultures were assessed for viable cell mass on the day of implantation into mice. This allowed cytostatic and cytocidal capacities of these compounds to be assessed.

[3] = Homo sapiens, 144 h, Table 9, mean ± S.E., read-out: IC50 (μM) 6dMTT

IC50 (K562 cells; Table 10, mean ± S.E., read-out: IC50 (μM) 6dMTT): 5.65 ± 0.8 µM
Structure (SMILES): COC(=O)c1ccc(CCC2=CC(=O)C=CC2=O)cc1 [COOCH3 / 2,5-quinoyl / CH2—CH2 / H]
Tumor Cell Mean log GI50 ([1]; Table 10): −5.00 | Tumor Cell Mean log TGI ([1]; Table 10): −4.65 | Hollow Fiber Assay IP score ([2]; Table 10): 6 | Hollow Fiber Assay SC score ([2]; Table 10): 4 | Hollow Fiber Assay Total Ip and SC Score ([2]; Table 10): 10

IC50 (K562 cells; Homo sapiens, 144 h, Table 8, mean+S.E., read-out: IC50 (μM) 6 dMTT): 41.3 µM
Structure (SMILES): COC(=O)c1ccc(NCc2cc(OC)ccc2OC)cc1 [COOCH3 / H / CH3]
Tumor Cell Mean log GI50 ([1]; Table 8): −4.40 | Tumor Cell Mean log TGI ([1]; Table 8): −4.04

Structure (SMILES): O=C(O)c1ccc(/C=C/c2cc(O)ccc2O)cc1O [COOH / 2,5-dihydroxyphenyl / CH═CH / OH]
Tumor Cell Mean log GI50 ([1]; Table 10): >−5.03 | Tumor Cell Mean log TGI ([1]; Table 10): >−5.0

IC50 (K562 cells; Table 8, mean+S.E., read-out: IC50 (μM) 6 dMTT): 100 µM
Structure (SMILES): COc1ccc(OC)c(CNc2ccc(C(=O)O)cc2)c1 [COOH / H / CH3]
Tumor Cell Mean log GI50 ([1]; Table 8): −4.0 | Tumor Cell Mean log TGI ([1]; Table 8): −4.0

IC50 (K562 cells; [3]): 6.83 ± 1.68 µM
Structure (SMILES): COC(=O)c1ccc(NCc2cc(O)c3ccccc3c2O)cc1 [Compound 18]
GI50 ([1]; Table 9): 8.91 µM | Tumor Cell Mean log TGI ([1]; Table 9): −4.62 | Hollow Fiber Assay IP score ([2]; Table 9, intraperitoneal fibers): 4 | Hollow Fiber Assay SC score ([2]; Table 9, subcutaneous fibers): 0 | Hollow Fiber Assay Total Ip and SC Score ([2]; Table 9): 0

IC50 (K562 cells; [3]): 9.11 ± 1 µM
Structure (SMILES): COC(=O)c1ccc(NCC2=CC(=O)c3ccccc3C2=O)cc1 [Compound 19, 4′-methylbenzoate-1′-N-1,4-methylnaphthoquinone amine]
GI50 ([1]; Table 9): 13.8 µM | Tumor Cell Mean log TGI ([1]; Table 9): −4.41

IC50 (K562 cells; [3]): 32 ± 0.5 µM
Structure (SMILES): O=C1C=CC(=O)C(CNc2ccc(C(=O)OC34CC5CC(CC(C5)C3)C4)cc2)=C1 [Compound 22, 4′-adamantylbenzoate-1′-N-p-quinone-2-methyl amine]
GI50 ([1]; Table 9): 4.79 µM | Tumor Cell Mean log TGI ([1]; Table 9): −4.72
